Data reported in US10450610B2, “Single nucleotide polymorphisms (SNP) and association with resistance to immune tolerance induction” (University of Tennessee Research Foundation, priority 2008, dated 2019).
Several values for one entry are separate records, joined by “and”; a condition that tells them apart may be missing. Equal entries are not always repeated. Entries after “also recorded” stand apart in the source; their conditions may differ.

Columns and labels:
[1] = tested on: DBA/1 mice; experiment: NSAID inhibition of oral tolerance induction to collagen II; arthritic joints scored; type: in vivo
Description: To determine whether tolerance induction to orally fed bovine CII in DBA/1 mice would be abrogated by orally fed NSAID, 3 groups of 20-22 DBA/1 mice were fed (by gavage) eight doses (Monday, Tuesday, Thursday, and Friday for 2 weeks) of the following: Placebo (saline) in the a.m. and Placebo (0.1 M HAc) in the p.m.; Placebo (saline) in the a.m. and 10 μg native bovine CII in the p.m.; or piroxicam (2.4 μg/gm) in the a.m. and native bovine CII (10 μg) in the p.m. After 1 week, all mice were immunized (intradermally at the base of tail) with 100 μg of bovine CII emulsified in complete Freund's adjuvant. Animals were placed in coded cages and were scored by a blinded observer twice weekly for the number of arthritic joints (joints swollen, red, and/or deformed).

[2] = tested on: spleen cells; experiment: IFNγ production by spleen cells of fed, CII-immunized mice cultured with α1(II) CB peptide mixture (ELISA); type: in vivo; details: FIG. 8
Excerpt: To assess the effect of oral feeding of piroxicam to another group of mice fed Placebo or CII on spleen cell IFNγ production in a manner similar to the experiment in FIG. 7, four groups of mice (4 mice per group) were gavaged 8 days over 2 weeks with the following: Piroxicam a.m.—CII p.m.; Piroxicam a.m.—HAc p.m.; Saline a.m.—CII p.m.; or Saline a.m.—HAc p.m. After 1 week rest, all mice were immunized at the base of the tail with a CII—complete Freund's adjuvant emulsion. After 14 days, mice ere sacrificed, and spleen cells were isolated and set up in culture with PBS or α1(II)CB peptide mixture. After 72 h culture, harvested supernatants ere analyzed for IFNγ levels by ELISA.

[3] = tested on: DBA/1 mice; experiment: Persistent NSAID effect on oral tolerance; arthritic joints after late CII immunization; type: in vivo; details: FIG. 10
Description: To determine whether chronic feeding of piroxicam with CII would have a persistent effect on tolerance induction to CII in DBA/1 mice, three groups of 10-11 DBA/1 mice were fed 8 doses of CII over two weeks (as above) on two occasions separated by 6 months: piroxicam (2.4 μg/gm) a.m. and Placebo (0.1M HAc, 100 μl) p.m.; Placebo (saline) a.m. and native bovine CII (10 μg) p.m; or piroxicam (2.4 μg/gm) a.m. and native bovine CII (10 μg) p.m. Three months after the second 8 dose feeding, each mouse was immunized (intradermally at base of tail) with 100 μg native bovine CII emulsified in complete Freund's adjuvant. Mice were placed in coded cages and scored twice weekly by a blinded observer for numbers of arthritic joints.

[4] = tested on: Peyer's patch cells; experiment: Peyer's patch cell / normal spleen cell co-culture proliferation with α1(II) CB peptide mixture (3H thymidine); type: in vivo; details: cells from mice fed piroxicam plus CII vs CII alone or piroxicam alone; p<0.03; FIG. 11
Description: To assess the status of the GALT in these three groups of mice, Peyer's patch cells were isolated from each animal, and set up (2.5×10^5/ml) in quadruplicate in co-culture with normal DBA/1 spleen cells (2×10^6/ml) with addition of recombinant murine IL2 (10 U/ml). PBS (as a control) or 50 μg/ml bovine α1(II) CB peptide mixture were added to quadruplicate wells in 96 round bottom well plates. After 3 days, cultures were pulsed with ^3H thymidine and harvested onto paper filters 24 h later. The “stimulation index” was calculated for each mouse by dividing the cpm of α1(II) CB peptide mixture culture by the cpm of the PBS control culture for each mouse. […] Thus, the marked increase in the stimulation index of Peyer's patch cells with DBA/1 spleen cells in the presence of α1(II) CB peptide mixture is quite exceptional and unexpected.

[5] = tested on: mesenteric lymph node cells; experiment: Mesenteric lymph node cell proliferation with α1(II) CB peptide mixture; type: in vivo, mice; details: FIG. 12
[6] = tested on: PBMC; experiment: Oral type I collagen in SSc patients; change in IL-10 production by antigen-stimulated PBMC; type: in vivo, human
Description: Samples from 26 patients from a trial of oral type I collagen (CI) in patients with diffuse systemic sclerosis (SSc) who took 500 μg/day CI for 12 months were collected. […] No patients were on DMARDs, biologies, NSAIDS or prednisone.
Patients with ROT1 AA, GG or GA genotype had IL-10 measured of IL-PBMC cultures stimulated by α1(I) CB mixture, α2(I) CB mixture, or native CI after receiving oral CI for 12 months minus the values of IL-10 in the supernatants of PBMC cultures stimulated with the same antigens at baseline before oral CI was administered to the SSc patients.

[7] = Phase II oral CI tolerance clinical trial in SSc; change in MRSS; type: in vivo, human; details: CI treated vs placebo treated completers, Late Phase ROT1AA patients deleted; Wilcoxon Rank Sum test; FIG. 16
Excerpt: In the Phase II oral CI tolerance clinical trial at 12 months, 79 SSc patients were genotyped of the 168 enrolled in the clinical trial. Seven of the 23 ROT1AA genotype were in the Late Phase category, and deleted from the results.

[8] = group mean, Genotype AA (N = 6)
[9] = individual SSc patients, Genotype AA, after 12 months oral CI 500 μg/day minus baseline
[10] = individual SSc patients, Genotype GG or GA, after 12 months oral CI 500 μg/day minus baseline
[11] = patients with ROT1 AA genotype, oral bovine CI 500 ug/day for 12 months

CN1C(C(=O)Nc2ccccn2)=C(O)c2ccccc2S1(=O)=O [piroxicam]
oral tolerance (OT) induction ([1]; DBA/1 mice fed CII, FIG. 7 / similar studies (data not shown)): abrogation of certain forms of oral tolerance | arthritic joints ([1]; piroxicam 2.4 μg/gm a.m. + CII 10 μg p.m., eight doses, FIG. 7): significantly more arthritic joints | IFNγ production by spleen cells cultured with α1(II) CB peptide mixture ([2]; fed with Placebo (alone)): reduced production of IFNγ | IFNγ production by spleen cells stimulated with α1(II) CB peptide mixture ([2]; piroxicam orally fed to mice being fed oral CII): dramatic increase | oral tolerance [3]: persistent abrogation of oral tolerance | arthritic joints at week 7 and 8 after immunization ([3]; fed piroxicam plus CII 9 and 3 months before vs Placebo plus CII, p<0.04 at 8 weeks): significantly more arthritic joints | stimulation by α1(II) CB peptide mixture (stimulation index) [4]: marked stimulation | proliferation in response to α1(II) CB peptide mixture ([5]; mice fed either CII or piroxicam alone): did not proliferate | stimulation by α1(II) CB peptide mixture ([5]; mice fed piroxicam plus CII): marked stimulation

type I collagen [CI]
IL-10 production change, Bovine Native CI [6, 8]: -825 ± 338 pg/mL | IL-10 production change, Bovine α1(I) CB Mix [6, 8]: -622 ± 480 pg/mL | IL-10 production change, Bovine α2(I) CB Mix [6, 8]: -975 ± 627 pg/mL | IL-10 production change, Bovine α1(I) CB Mix ([6]; group mean, Genotype GG or GA): 30 ± 119 pg/mL | IL-10 production change, Bovine α2(I) CB Mix ([6]; group mean, Genotype GG or GA): 22 ± 156 pg/mL | IL-10 production change, Bovine Native CI ([6]; group mean, Genotype GG or GA (BB or BA)): 27 ± 97 pg/mL | IL-10 production change, Bovine Native CI [6, 9]: −1726 pg/ml and +70 pg/ml and −920 pg/ml and −233 pg/ml and −1886 pg/ml and −253 pg/ml | IL-10 production change, Bovine α1(I) CB Mix [6, 9]: −342 pg/ml and −19 pg/ml and −611 pg/ml and −112 pg/ml and −2942 pg/ml and +295 pg/ml | IL-10 production change, Bovine α2(I) CB Mix [6, 9]: −1692 pg/ml and +28 pg/ml and −494 pg/ml and +490 pg/ml and −3736 pg/ml and −448 pg/ml | IL-10 production change, Bovine Native CI [6, 10]: −135 pg/ml and +566 pg/ml and −334 pg/ml and +192 pg/ml (2×) and +103 pg/ml and +386 pg/ml and −1564 pg/ml and +233 pg/ml and +21 pg/ml and +237 pg/ml and +150 pg/ml and −94 pg/ml and +32 pg/ml and −282 pg/ml and +232 pg/ml and −52 pg/ml and +43 pg/ml and +269 pg/ml and +341 pg/ml | IL-10 production change, Bovine α1(I) CB Mix [6, 10]: −314 pg/ml and +410 pg/ml and −104 pg/ml and −391 pg/ml and +529 pg/ml and +216 pg/ml and −968 pg/ml and +347 pg/ml and −397 pg/ml and +1364 pg/ml and +108 pg/ml and −205 pg/ml and −81 pg/ml and −561 pg/ml and +582 pg/ml and −46 pg/ml and −538 pg/ml and −227 pg/ml and +663 pg/ml and +221 pg/ml | IL-10 production change, Bovine α2(I) CB Mix [6, 10]: −388 pg/ml and +203 pg/ml and −86 pg/ml and −180 pg/ml and +859 pg/ml and +546 pg/ml and −1000 pg/ml and +261 pg/ml and −2021 pg/ml and +1460 pg/ml and +145 pg/ml and −113 pg/ml and +141 pg/ml (2×) and −509 pg/ml and +5 pg/ml and +381 pg/ml and +252 pg/ml and −115 pg/ml and −415 pg/ml | IL-10 production by PBMC cultured with native bovine CI and α2(I) CB mixture [6, 11]: did not upregulate IL-10 production; also recorded: deficient upregulation of IL-10 production | IL-10 production by PBMC cultured with α1(I) CB mixture [6, 11]: trend toward defective production | change in MRSS at 12 months from baseline values [7]: significant difference
